Literature values as cited in US10722456B2, “Oral composition of celecoxib for treatment of pain” (Dr. Reddy's Laboratories Ltd., priority 2016, dated 2020).

Details: oral administration

- time for peak plasma concentrations to be achieved: approximately 3.0 hours
Structure (SMILES): Cc1ccc(-c2cc(C(F)(F)F)nn2-c2ccc(S(N)(=O)=O)cc2)cc1 [Celecoxib, 4-[5-(4-methylphenyl)—3-(trifluoromethyl)-1H-pyrazol-1-yl] benzenesulfonamide]
